# Patent US20220298511A1, “APPLICATION OF COMBINED INHIBITION OF LNCRNA SAMMSON AND BRAF KINASE IN DELAYING ADAPTIVE DRUG-RESISTANCE OF MELANOMA” (XI'AN JIAOTONG UNIVERSITY, priority 2021, published 2022)
# Assays:
# [1] = system: SAMMSON RNA level in A375 melanoma cells carrying BRAF^V600E mutation; assay: qRT-PCR analysis of SAMMSON RNA level after kinase inhibitor treatment; settings: 2 μM inhibitor, 0, 6 and 24 hours, actin as internal control
# Experimental: (§3) Melanoma cell lines 1205Lu and A375 carrying BRAF^V600E mutation and HEK293FT cells were cultured in a 37° C. constant temperature incubator (containing 5% CO2). The A375 and HEK293FT cells were cultured in Dulbecco's Modified Eagle's Medium (DMEM), and the 1205Lu cells were cultured in Roswell Park Memorial Institute 1640 medium (RPMI 1640 medium). Both of the media contain 10% fetal bovine serum, penicillin (100 units/ml), and streptomycin (100 μg/ml).
# (§4) Total RNA was extracted from the melanoma cells using TriPure Isolation Reagent (Roche, Basel, Switzerland), and then reverse transcribed into cDNA using the kit PrimeScript RT Master Mix (Takara #DRR036A, Osaka, Japan). Quantitative real-time PCR reactions were performed using iQ SYBR Green Supermix (BioRad), and analyzed by CFX Connect real-time PCR detection system (BioRad).
# [2] = system: SAMMSON RNA level in 1205Lu melanoma cells carrying BRAF^V600E mutation; assay: as above; settings: 1205Lu cells, 2 μM inhibitor, 0, 6 and 24 hours, actin as internal control
# Experimental: as §3, §4
# 1205Lu TR SAMMSON cells = assay: Annexin-V/PI apoptosis assay with doxycycline-induced SAMMSON overexpression; format: cell-based; settings: 5 μM vemurafenib 48 hours
# Experimental: (§1) The wild-type HA-SOX10 cDNA or SAMMSON cDNA was cloned into a pENTR/D-TOPO vector (Thermo Fisher Scientific) to construct an entry vector. Then, the entry vector and a pLentipuro/TO/V5-DEST vector were recombined to form a lentiviral vector. Lentivirus packaging for the lentiviral vector was performed in HEK293FT cells to produce lentiviruses. The melanoma cells 1205Lu and A375 were infected with the lentiviruses for 72 hours, and then screened by using puromycin to produce A375-TR HA-SOX10 WT cells, 1205Lu-TR HA-SOX10 WT cells, A375-TR SAMMSON cells and 1205Lu-TR SAMMSON cells.
# (§2) The cells were collected, washed twice with PBS and stained for 20-30 minutes using Annexin-V-FLUOS kit (Roche) according to the manufacturer's protocol. The stained cells were analyzed by a flow cytometer (Beckman Coulter, Indianapolis Ind., USA). The data were analyzed using Flowjo software (Three Star, Inc., Ashland, Oreg., USA).
# A375 TR SAMMSON cells = assay: as above; format: cell-based; settings: 5 μM vemurafenib 48 hours
# Experimental: as §1, §2
# A375 cells = assay: Annexin-V/PI apoptosis assay with SAMMSON siRNA knockdown and vemurafenib; format: cell-based; settings: then 5 μM vemurafenib 48 hours
# Experimental: as §2
# The non-targeting control siRNA sequence is:
# We tested whether the up-regulation of SAMMSON induced by the inhibition of the ERK signaling pathway is involved in the adaptive drug-resistance of melanoma cells. Two pairs of specific siRNAs (SEQ ID NO: 4 and SEQ ID NO: 5) were used to knock down SAMMSON in two melanoma cell lines A375 and 1205Lu carrying BRAF mutations. […] Referring also to FIGS. 3C to 3F, in A375 cells, percentage of cell apoptosis increased from 19% to 43% (SAM #1) and 37% (SAM #2), and in 1205Lu cells, from 26% to 43% (SAM #1) and 46% (SAM #2).
# [3] = with 100 ng/ml doxycycline 72 hours (SAMMSON overexpressed)
molecule,measurement,setting,value
O=C(Nc1ccc2[nH]nc(-c3ccncc3)c2c1)[C@@H]1CCN(CC(=O)N2CCN(c3ccc(-c4ncccn4)cc3)CC2)C1 [SCH772984],RNA level of SAMMSON,[1],rapidly up-regulate the RNA level of SAMMSON
same,RNA level of SAMMSON,[2],rapidly up-regulate the RNA level of SAMMSON
"CCCS(=O)(=O)Nc1ccc(F)c(C(=O)c2c[nH]c3ncc(-c4ccc(Cl)cc4)cc23)c1F [vemurafenib, Vemurafenib]",percentage of cell apoptosis,1205Lu TR SAMMSON cells; [3],33%
same,percentage of cell apoptosis,1205Lu TR SAMMSON cells; without doxycycline,44%
same,percentage of cell apoptosis,A375 TR SAMMSON cells; [3],33%
same,percentage of cell apoptosis,A375 TR SAMMSON cells; without doxycycline,51%
same,percentage of cell apoptosis,A375 cells; control siRNA 48 hours,19%
"SAM #1: SAMMSON-specific siRNA, SEQ ID NO: 4, 5′-GUCGCUAGACAUUUGAGGA-3′ (listed as RNA, chemistry not given here)",percentage of cell apoptosis,A375 cells; SAMMSON siRNA 48 hours,43%
"SAM #2: SAMMSON-specific siRNA, SEQ ID NO: 5, 5′-CCAACUCUCAAAGUAACUU-3′ (listed as RNA, chemistry not given here)",percentage of cell apoptosis,A375 cells; SAMMSON siRNA 48 hours,37%
